Assay results: patent US6518315B1, “Medicinal uses of phenylaikanols and derivatives” (The University of Sydney, priority 1997, dated 2003)
Blank lines part the entries; values can stand above or below the compound they belong to.

Columns and labels:
[1] = tested on: cardiac Purkinje fibres; assay: Cardiac electrophysiology on Purkinje fibres; design: species or system dog; details: up to 10 μM
Experimental: Cardiac Electrophysiological Activities of Gingerol and its Analogue
The basic cardiac electrophysiological properties were assessed using cardiac Purkinje fibres obtained from adult mongrel dogs.
Electrophysiology was carried out on dog heart purkinje fibre to test for potential arrhythmia. […] At high concentration (50 μM), however, [8]-gingerol reduced approximate 80% and 50% of action potential duration at 50% and 90% repolarisations respectively. Whereas the analogue reduced 75% and 30% respectively.

[2] = tested on: guinea pig atria; assay: Organ bath assay, isolated guinea pig atria (rate and force of contraction)
Experimental: Male guinea pigs, 3-4 weeks old, were killed by rapid cervical dislocation without induced anaesthesia. Then, the guinea pigs were dissected to isolate the atria which were immediately mounted vertically in an organ bath containing Krebs-Henseleit solution oxygenated with carbogen.
One gram tension was applied to the atria and the base line continuously adjusted until it was stable for 20 mins. The rate and force of contraction were recorded using Mac Lab equipment.
Test substances in DMSO were assayed to a maximum concentration of 50 μM at a final concentration of 2.5% of DMSO.

[3] = tested on: rat mesenteric artery; assay: Vasodilation on rat mesenteric artery; details: for potency in relaxing rat mesenteric artery / vascular bed, in words: preliminary investigation
Description: The proposed mechanism of neuropeptide release by 1-(4-hydroxy-3-methoxyphenyl)dodecan-3-ol, similar to that of capsaicin, was supported by studies in blood vessels. […] This contrasts with capsaicin which has similar activity in Guinea pig atria (force and rate) and relaxing rat mesenteric artery.

[4] = target: T1, Ca^2+-ATPase of dog cardiac SR (Canis lupus familiaris, UniProt O46674); assay: Sarcoplasmic reticulum Ca^2+-ATPase assay; format: biochemical; details: 0 μM = 100
T1 construct: SR membrane (75 μg/ml): 24 μl; from tissue; host or cells: dog cardiac sarcoplasmic reticulum membranes
Experimental: A. Sarcoplasmic Reticulum Ca^2+-ATPase Assay
SR membrane (75 μg/ml): 24 μl
Test substance: appropriate volumes to give a dose-effect concentration
Incubation buffer: up to 240 μl
A portion at each concentration (54 μl) was aliquoted into 4 designated wells of the microplate (two of four wells were controls). Each well was mixed with ATP solution (20 mM, 6 μl), except the controls, using an 8 channel pipette. The controls were assayed in the absence of ATP or calcium.
The plate was incubated with the lid on, for 30 min at 37° C., colour reagent (160 μl) was then added and mixed with citrate solution (34%, 30 μl). The plate was developed at room temperature for 30 min then absorbance at 655 nm was read from the microplate reader. The Ca^2+-ATPase activity was quantitated, from a Pi standard curve, as concentration of liberated inorganic phosphate.
Stock solutions (10 mM) of test substance were prepared in DMSO, then series dilutions were made either in DMSO or in 1M HEPES to produce the dose-response concentrations. The maximum concentration of DMSO in the final assay solution was 2.5%.
Each concentration of test substance was assayed in duplicate in the presence and absence of ATP or calcium. Phosphate standards are run on each plate as follows:
Effect of gingerols and their derivatives on the Ca^2+-ATPase of dog cardiac SR.

[5] = tested on: capsaicin-sensitive DRG neuronal cells; assay: [Ca^2+]i transients in DRG neuronal cells in culture; format: cell-based, rat; details: for Peak [Ca^2+]i (Average ± SD): 10 μM applied for 1 min, 2 mM Ca^2+
Description: Effect of Gingerol Analogues Towards Rat Dorsal Root Ganglia
Capsaicin, the pungent component in peppers of the Capsicum genus, family Solanaceae, has the ability to excite a subset of sensory neurons, which include polymodal nociceptors and warm thermoceptors (Fitzgerald, 1983) by opening non-selective cation channels that are permeable to Na^+, K^+, and Ca^2+ (Bevan and Szolcsanyi, 1990). It has been shown that capsaicin evoked a concentration-dependent rise in [Ca^2+]i in cultured dorsal root ganglion neurons. The duration of the elevation of [Ca^2+]i depended on the concentration of capsaicin (Choleswinski, et al., 1993). In this investigation peak [Ca^2+]i transient measurements are used as a model for testing gingerol analogues.
DRG from neonatal (3-5 days old) rat or adult Sprague-Dawley rats were incubated in Hanks CMF saline with 0.05% collagenase and 0.25% trypsin for 25 min at 37° C. Individual cells were obtained by trituration with fire polished Pasteur pipettes of diminishing diameters. Neurones were isolated from the cell suspension in 30% Percoll and then plated on collagen coated coverslips or in 24-well plates, then cultured in neurobasal medium with B27 supplement, 50 ng/ml 2.5 S nerve growth factor, 2 mM 1-glutamine and 100 U/ml penicillin/streptomycin. Cultures were maintained at 37° C. with 5% CO2. 30% Percoll increases the percentage of capsaicin-sensitive DRG neurones up to 70%. For peak [Ca^2+]i transients measurements, cells on coverslips were incubated with 5 μM Fura-2 AM for 30 min at 37° C. The coverslips were then mounted on a chamber attached to a fast sample application perfusion system which allows changing solutions in the second range. Recordings were made on the stage of a Nikon Diaphot inverted microscope fitted with a Nikon 40×Fluo (NA 0.85) DL Ph3 or 40×Fluo (NA 1.3) oil objective. [Ca^2+]i was calculated from dual excitation wavelength (340/380 nm) fluorescence measurements following an intracellular calibration procedure by the Grynkiewicz equation, using MCID M2/M4 v.3.0 (Imaging Res. Inc.) software. Cells were continuously perfused with a solution consisting of 140 mM NaCl, 2 mM CaCl2, 5 mM KCl, 20 mM HEPES, 10 mM glucose, pH 7.4. To study KCl evoked depolarisation, 50 mM NaCl was replaced by equimolar KCl. Cytoplasmic localisation of Fura-2 was tested with the Mn^2+ quenching technique (Dedov and Roufogalis, 1998). All experiments were performed at room temperature (20-23° C.).
Typical changes in [Ca^2+]i upon depolarisation were evoked by 50 mM KCl and by application of 1 μM capsaicin; both were applied for 30 sec. Capsaicin-evoked peak [Ca^2+]i transients are characterised by a fast rise and long-steady state [Ca^2+]i clearance from the cytoplasm. In capsaicin-sensitive cells the half-time of cytoplasmic Ca^2+ clearance was proportional to the amplitudes of peak [Ca^2+]i transients.
To examine the effect of gingerol derivatives, one or several compounds in succession at a concentration of 10 μM were applied for 1 min to the DRG neuronal cells followed by washing out for 4 min with physiological solution. To the capsaicin-sensitive cells, 10 μM capsaicin and 50 mM KCl were applied, respectively, to confirm the viability of the cells. In addition, morphological appearances of the cells were also examined at the end of experiment. […]

[6] = tested on: brine shrimp (Artemia salina Leach); assay: Brine shrimp assay; format: in vivo
Description: Toxicity—Brine Shrimp Assay
The brine shrimp assay procedure determines LC50 values of active compounds. Activities of a broad range of known active compounds are manifested as toxicity to brine shrimp (Artemia salina Leach). There are many applications of the assay including analysis of toxic substances, anaesthetics, morphine-like substances and cocarcinogenicity of phorbol esters.
DMSO (dimethyl sulfoxide) was the solvent of choice because of its good solubilising properties and also because the substances used in the ATPase inhibition assays were already prepared with DMSO.
The method for testing solvent toxicity used was basically that reported by J L McLaughlin in Methods of Plant Biochemistry (1991), vol. 6 (K Hostettman, ed.), Academic Press, London, 1-32. DMSO solutions of the substances to be tested were added directly to the vials containing the brine shrimp. As the concentration of DMSO is that we wished to use was higher than the recommended 1% v/v testing of the toxicity of the DMSO was therefore necessary. The concentrations of DMSO tested on the shrimp, along with the results from the assay which was done in duplicate are listed below.
Brine shrimp toxicity was assayed, except for some minor modifications, according to the method of McLaughlin et al as reported in Brine Shrimp: A convenient bioassay for active plant constituents, B N Meyer, N R Ferrigni, J E Putnam, L B Jacobsen, D E Nichols and J L McLaughlin in Planta Medica (1982), 45, 31-34 and Crown gall tumours on potato discs and brine shrimp lethality: Two simple bioassays for higher plant screening and fractionation. J L McLaughlin. Methods of Plant Biochemistry (1991), vol. 6 (K Hostettman, ed.), Academic Press, London, 1-32. Ten shrimp were transferred to each of the vials and the volume adjusted to 4.9 mL. Each dose was performed in triplicate, including the control. In quick succession, the appropriate volume of additional DMSO for each dose, required to achieve a final concentration of 2%, was added before the appropriate volume of test solution. The vials were gently mixed and the time noted. After 24 hours, the number of survivors were counted and % mortality was determined. The test compounds were assayed at concentrations of 100 μM, 25 μM, 5 μM, 1 μM and 0.2 μM (and where appropriate concentrations of 0.04 μM and 0.008 μM).
The brine shrimp were able to survive without food in the vials over the 24 hour period and were therefore not fed.
The dose-response curves were constructed using the Sigmaplot computer program and the LC50 value was calculated from the intersection point of the curve and the 50% mortality line. The LC50 values were expressed in both μM and μg/mL.
For substances with low toxicity, the greater sign “>” indicated the highest concentration at which the assay was carried out as precipitation of the substances occurred above that concentration.

T1 sequence (O46674 whole entry): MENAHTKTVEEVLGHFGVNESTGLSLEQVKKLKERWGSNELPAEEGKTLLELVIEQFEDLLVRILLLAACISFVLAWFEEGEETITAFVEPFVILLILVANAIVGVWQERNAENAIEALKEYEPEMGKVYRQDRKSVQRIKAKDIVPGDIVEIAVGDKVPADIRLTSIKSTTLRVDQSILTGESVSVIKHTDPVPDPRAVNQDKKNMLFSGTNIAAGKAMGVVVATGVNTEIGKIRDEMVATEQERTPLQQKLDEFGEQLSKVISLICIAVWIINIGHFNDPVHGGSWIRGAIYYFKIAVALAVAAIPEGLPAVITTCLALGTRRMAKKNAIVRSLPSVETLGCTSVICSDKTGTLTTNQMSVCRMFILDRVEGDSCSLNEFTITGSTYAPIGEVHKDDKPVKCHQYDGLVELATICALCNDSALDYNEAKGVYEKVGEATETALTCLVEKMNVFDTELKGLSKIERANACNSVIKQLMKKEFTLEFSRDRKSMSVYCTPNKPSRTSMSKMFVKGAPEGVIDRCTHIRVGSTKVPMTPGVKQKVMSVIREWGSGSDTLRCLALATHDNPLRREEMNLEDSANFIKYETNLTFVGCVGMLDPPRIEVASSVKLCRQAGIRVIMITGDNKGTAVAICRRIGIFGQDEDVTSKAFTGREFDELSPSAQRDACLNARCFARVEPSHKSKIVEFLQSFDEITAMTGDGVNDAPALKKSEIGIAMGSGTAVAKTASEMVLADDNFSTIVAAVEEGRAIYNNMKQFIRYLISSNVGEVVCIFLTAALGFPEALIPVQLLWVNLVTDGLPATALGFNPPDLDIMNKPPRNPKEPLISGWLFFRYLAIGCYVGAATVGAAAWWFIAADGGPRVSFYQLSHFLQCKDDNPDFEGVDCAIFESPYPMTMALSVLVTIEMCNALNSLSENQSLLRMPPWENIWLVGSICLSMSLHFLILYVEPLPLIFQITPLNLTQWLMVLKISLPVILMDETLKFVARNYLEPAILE

SMILES: CCCCCCCC(O)CC(=O)CCc1ccc(O)c(OC)c1 (centres unmarked) [[8]-gingerol, 5-hydroxy-1-(4-hydroxy-3-methoxyphenyl)dodecan-3-one, reference compound]
effect on rate of depolarization, amplitude and duration of action potential (50% and 90%) [1]: insignificant effect
time to increased cardiac contractility after addition of the drug [2]: 15 s

SMILES: CCCCCCCC(=O)CC(O)CCc1ccc(O)c(OC)c1 (centres unmarked) [3-hydroxy-1-(4-hydroxy-3-methoxyphenyl)dodecan-5-one]
potency in relaxing rat mesenteric artery / vascular bed, in words [3]: showed potency

SR Ca^2+-ATPase activity ([4]; 5 μM): 113
SR Ca^2+-ATPase activity ([4]; 10 μM): 136
SR Ca^2+-ATPase activity ([4]; 25 μM): 158
SR Ca^2+-ATPase activity ([4]; 50 μM): 126
SR Ca^2+-ATPase activity ([4]; 100 μM): 87
SR Ca^2+-ATPase activity ([4]; 200 μM): 18
SMILES: CCCCCCCC(=O)CCCCc1ccc(O)c(OC)c1 [1-(4-hydroxy-3-methoxyphenyl)dodecan-5-one]

SMILES: CCCCCCCCCC(=O)CCc1ccc(O)c(OC)c1 [[8]-paradol, 1-(4-hydroxy-3-methoxyphenyl)dodecan-3-one, reference compound]
potency in relaxing rat mesenteric artery / vascular bed, in words [3]: showed potency
Peak [Ca^2+]i (Average ± SD) [5]: 200 nM

SMILES: CCCCCCCC(O)CC(=O)CCc1ccc2c(c1)OCO2 (centres unmarked) [5-hydroxy-1-(3,4-methylenedioxyphenyl)dodecan-3-one]
potency in relaxing rat mesenteric artery / vascular bed, in words [3]: showed potency

SMILES: C[C@H]1O[C@@H](O[C@H]2[C@@H](O)C[C@H](O[C@H]3[C@@H](O)C[C@H](O[C@H]4CC[C@@]5(C)[C@H](CC[C@@H]6[C@@H]5C[C@@H](O)[C@]5(C)[C@@H](C7=CC(=O)OC7)CC[C@]65O)C4)O[C@@H]3C)O[C@@H]2C)C[C@H](O)[C@@H]1O [digoxin, reference compound]
time for tension to reach maximum after addition of a dose [2]: a few mins

SMILES: CCCCCCCC(O)CC(=O)C=Cc1ccc(O)c(OC)c1 (centres unmarked) [[8]-dehydrogingerol, 5-hydroxy-1-(4-hydroxy-3-methoxyphenyl)dodecan-1-ene-3-one, reference compound]
time for tension to reach maximum after addition of a dose [2]: a few mins

SMILES: COc1cc(CNC(=O)CCCC/C=C/C(C)C)ccc1O [Capsaicin, reference compound]
evoked [Ca^2+]i transients in Ca^2+-free medium or with ruthenium red ([5]; Ca^2+-free medium or ruthenium red (1 μM)): abolished or greatly diminished

SMILES: CCCCCCCC(O)CCCCc1ccc(O)c(OC)c1 (centres unmarked) [1-(4-hydroxy-3-methoxyphenyl)dodecan-5-ol]
HEART RATE (chronotropic activity), result in words ([2]; assayed to a maximum of 50 μM): ↑weakly
Peak [Ca^2+]i (Average ± SD) [5]: 0 nM

SMILES: C[S+](C)[O-] [DMSO, dimethyl sulfoxide]
% Deaths ([6]; 1 % v/v): 0%
% Deaths ([6]; 2 % v/v): 0%
% Deaths ([6]; 3 % v/v): 0%
% Deaths ([6]; 4 % v/v): 0%
% Deaths ([6]; 5 % v/v): 9%
% Deaths ([6]; 7 % v/v): 12%
% Deaths ([6]; 9 % v/v): 18%
% Deaths ([6]; 11 % v/v): 57%
% Deaths ([6]; 13 % v/v): 96%
% Deaths ([6]; 15 % v/v): 100%
% Deaths ([6]; 20 % v/v): 100%
% Deaths ([6]; 25 % v/v): 100%

EC50 ([3]; Rattus norvegicus, arteries 200-300 μm, precontracted with endothelin, read-out: EC50, relaxation of small arteries from rat mesentery): 500 nM
SMILES: CCCCCCCCCC(O)CCc1ccc(O)c(OC)c1 (single isomer, unassigned) [enantiomer-1, 1-(4-hydroxy-3-methoxyphenyl)dodecan-3-ol]

SMILES: CCCCCCCCC(C)(O)CCc1ccc(O)c(OC)c1 (centres unmarked) [3-methyl-1-(4-hydroxy-3-methoxyphenyl)undecan-3-ol]
Peak [Ca^2+]i (Average ± SD) [5]: 0 nM

melting point: 78 to 80 °C
SMILES: CCCCCCCCCC(O)C(=O)c1ccc(O)c(OC)c1 (centres unmarked) [2-hydroxy-1-(4-hydroxy-3-methoxyphenyl)undecan-1-one]
